Source: patent US20250120932A1, “PHARMACEUTICAL COMPOSITION” (NEUROPRO THERAPEUTICS, INC., priority 2021, published 2025)
Values joined by “and” are separate entries in the source; they are usually repeats but may differ in a detail not shown here. Identical values can stand only once.

Assay: Pharmacokinetic study in cynomolgus monkeys after oral (nasogastric) gavage, sublingual and intravenous administration
Assay type: in vivo
Details: monkey
Description: A pharmacokinetic study was done in cynomolgus monkeys following single oral (nasogastric) gavage, sublingual, and intravenous administration. […] Calibration curves, blanks, and analytical QCs were prepared in monkey plasma (K2EDTA). The extracts were evaporated to dryness, reconstituted, and then analyzed by LC-MS/MS. The calibration range was 0.250-250 ng/mL for both analytes.
If the criteria for either the calibration curve or the analytical QCs were not met, the analytical run was rejected. […] No deviations were found during the bioanalytical phase of the study conducted by Origin. Calibration curves were derived from the individual analyte to internal standard peak area ratios using the least squared regression of the ratio versus the nominal concentration of the calibration standard, prepared in duplicate. The regression was then used to back-calculate the concentration of each calibration standard, QC sample and study sample. […] Analyst® Software Version 1.6.3 (Applied Biosystems-MDS Sciex), operated with Windows® (Microsoft), was used for instrument control, data acquisition, and peak integrations. Peak area ratios, standard curve regressions, and sample concentration/accuracy values were calculated with Analyst® Software Version 1.6.3. Other results (e.g., mean statistics) were calculated with Excel® (Microsoft).
There was no apparent sex difference for the second formulation. […] A fourth formulation comprising the composition B listed in Table 54 was also administered in monheys.

Work on `CCCCNc1cc(C(=O)N(Cc2ccccc2)Cc2ccccc2)cc(S(N)(=O)=O)c1Oc1ccccc1` [Bumetanide Dibenzylamide, N, N-dibenzyl 3-aminosulfonyl-5-butylamino-4-phenoxybenzamide] yielded a concentration at 2 h (cynomolgus monkey, plasma, other: sublingual, 5 mg/kg, Plasma Bumetanide Dibenzylamide concentration, Median, SL, dose column 5 mg/kg (title 30 mg/kg), Fourth Formulation (Form 2), 2.0 h, N=4) of 0 ng/mL, a concentration at 4 h (cynomolgus monkey, plasma, other: sublingual, 5 mg/kg, Plasma Bumetanide Dibenzylamide concentration, Median, SL, dose column 5 mg/kg (title 30 mg/kg), Fourth Formulation (Form 2), 4.0 h, N=4) of 0 ng/mL and a concentration at 8 h (cynomolgus monkey, plasma, other: sublingual, 5 mg/kg, Plasma Bumetanide Dibenzylamide concentration, Median, SL, dose column 5 mg/kg (title 30 mg/kg), Fourth Formulation (Form 2), 8.0 h, N=4) of 0.505 ng/mL. For the same molecule, the concentration at 24 h (cynomolgus monkey, plasma, other: sublingual, 5 mg/kg, Plasma Bumetanide Dibenzylamide concentration, Median, SL, dose column 5 mg/kg (title 30 mg/kg), Fourth Formulation (Form 2), 24.0 h, N=4) was 0.182 ng/mL, the concentration at 32 h (cynomolgus monkey, plasma, other: sublingual, 5 mg/kg, Plasma Bumetanide Dibenzylamide concentration, Median, SL, dose column 5 mg/kg (title 30 mg/kg), Fourth Formulation (Form 2), 32.0 h, N=4) was 0 ng/mL and the concentration at 0 h (cynomolgus monkey, plasma, other: sublingual, 5 mg/kg, Plasma Bumetanide Dibenzylamide concentration, SL, dose column 5 mg/kg (title 30 mg/kg), Fourth Formulation (Form 2), 0.00 h, individual animals) was 0 ng/mL. It also gave a concentration at 0.25 h (cynomolgus monkey, plasma, other: sublingual, 5 mg/kg, Plasma Bumetanide Dibenzylamide concentration, SL, dose column 5 mg/kg (title 30 mg/kg), Fourth Formulation (Form 2), 0.25 h, individual animals) of 0 ng/mL, a concentration at 0.5 h (cynomolgus monkey, plasma, other: sublingual, 5 mg/kg, Plasma Bumetanide Dibenzylamide concentration, SL, dose column 5 mg/kg (title 30 mg/kg), Fourth Formulation (Form 2), 0.50 h, individual animals) of 0 ng/mL and a concentration at 1 h (cynomolgus monkey, plasma, other: sublingual, 5 mg/kg, Plasma Bumetanide Dibenzylamide concentration, SL, dose column 5 mg/kg (title 30 mg/kg), Fourth Formulation (Form 2), 1.0 h, individual animals) of 0 ng/mL. The concentration at 0.08 h (cynomolgus, cynomolgus monkey, plasma, intravenous, 2 mg/kg, Plasma Bumetanide Dibenzylamide concentration, Median, dose column 2 mg/kg (title 30 mg/kg), Third Formulation (Form 4), 0.08 h, N=4) was 1370 ng/mL, the concentration at 0.5 h (cynomolgus, cynomolgus monkey, plasma, intravenous, 2 mg/kg, Plasma Bumetanide Dibenzylamide concentration, Median, dose column 2 mg/kg (title 30 mg/kg), Third Formulation (Form 4), 0.50 h, N=4) was 672 ng/mL and the concentration at 1 h (cynomolgus, cynomolgus monkey, plasma, intravenous, 2 mg/kg, Plasma Bumetanide Dibenzylamide concentration, Median, dose column 2 mg/kg (title 30 mg/kg), Third Formulation (Form 4), 1.00 h, N=4) was 504 ng/mL. For the same molecule, the concentration at 2 h (cynomolgus, cynomolgus monkey, plasma, intravenous, 2 mg/kg, Plasma Bumetanide Dibenzylamide concentration, Median, dose column 2 mg/kg (title 30 mg/kg), Third Formulation (Form 4), 2.00 h, N=4) was 297 ng/mL, the concentration at 4 h (cynomolgus, cynomolgus monkey, plasma, intravenous, 2 mg/kg, Plasma Bumetanide Dibenzylamide concentration, Median, dose column 2 mg/kg (title 30 mg/kg), Third Formulation (Form 4), 4.00 h, N=4) was 109 ng/mL and the concentration at 8 h (cynomolgus, cynomolgus monkey, plasma, intravenous, 2 mg/kg, Plasma Bumetanide Dibenzylamide concentration, Median, dose column 2 mg/kg (title 30 mg/kg), Third Formulation (Form 4), 8.00 h, N=4) was 27.2 ng/mL. The concentration at 24 h (cynomolgus, cynomolgus monkey, plasma, intravenous, 2 mg/kg, Plasma Bumetanide Dibenzylamide concentration, Median, dose column 2 mg/kg (title 30 mg/kg), Third Formulation (Form 4), 24.00 h, N=4) was 2.62 ng/mL, the concentration at 32 h (cynomolgus, cynomolgus monkey, plasma, intravenous, 2 mg/kg, Plasma Bumetanide Dibenzylamide concentration, Median, dose column 2 mg/kg (title 30 mg/kg), Third Formulation (Form 4), 32.00 h, N=4) was 0.917 ng/mL and the “Plasma Bumetanide Dibenzylamide concentration” value (IV, dose column 2 mg/kg (title 30 mg/kg), Third Formulation (Form 4), 0.08 h, individual animals) was 1430 ng/mL and 1160 ng/mL and 1310 ng/mL. The “Plasma Bumetanide Dibenzylamide concentration” value (IV, dose column 2 mg/kg (title 30 mg/kg), Third Formulation (Form 4), 0.50 h, individual animals) was 757 ng/mL and 555 ng/mL and 626 ng/mL, the “Plasma Bumetanide Dibenzylamide concentration” value (IV, dose column 2 mg/kg (title 30 mg/kg), Third Formulation (Form 4), 1.00 h, individual animals) was 536 ng/mL and 472 ng/mL and 385 ng/mL and the “Plasma Bumetanide Dibenzylamide concentration” value (IV, dose column 2 mg/kg (title 30 mg/kg), Third Formulation (Form 4), 2.00 h, individual animals) was 316 ng/mL and 278 ng/mL and 214 ng/mL. The “Plasma Bumetanide Dibenzylamide concentration” value (IV, dose column 2 mg/kg (title 30 mg/kg), Third Formulation (Form 4), 4.00 h, individual animals) was 87.8 ng/mL and 129 ng/mL and 89.3 ng/mL, the “Plasma Bumetanide Dibenzylamide concentration” value (IV, dose column 2 mg/kg (title 30 mg/kg), Third Formulation (Form 4), 8.00 h, individual animals) was 51.4 ng/mL and 26.6 ng/mL and 27.7 ng/mL and 17.2 ng/mL and the “Plasma Bumetanide Dibenzylamide concentration” value (IV, dose column 2 mg/kg (title 30 mg/kg), Third Formulation (Form 4), 24.00 h, individual animals) was 3.95 ng/mL and 0.942 ng/mL and 8.10 ng/mL and 1.28 ng/mL. For the same molecule, the “Plasma Bumetanide Dibenzylamide concentration” value (IV, dose column 2 mg/kg (title 30 mg/kg), Third Formulation (Form 4), 32.00 h, individual animals) was 1.47 ng/mL and 0.303 ng/mL and 3.80 ng/mL and 0.363 ng/mL, the “Plasma Bumetanide Dibenzylamide concentration” value (NG 30 mg/kg, First Formulation (Form 1), 0.00 h, individual animals, female monkeys) was 0.00 ng/mL and the “Plasma Bumetanide Dibenzylamide concentration” value (NG 30 mg/kg, First Formulation (Form 1), 0.00 h, individual animals, male monkeys) was 0.00 ng/mL. The “Plasma Bumetanide Dibenzylamide concentration” value (NG 30 mg/kg, First Formulation (Form 1), 0.25 h, individual animals, female monkeys) was 0.992 ng/mL and 0.398 ng/mL, the “Plasma Bumetanide Dibenzylamide concentration” value (NG 30 mg/kg, First Formulation (Form 1), 0.25 h, individual animals, male monkeys) was 0.932 ng/mL and 14.9 ng/mL and the “Plasma Bumetanide Dibenzylamide concentration” value (NG 30 mg/kg, First Formulation (Form 1), 0.50 h, individual animals, female monkeys) was 1.66 ng/mL and 1.18 ng/mL. The “Plasma Bumetanide Dibenzylamide concentration” value (NG 30 mg/kg, First Formulation (Form 1), 0.50 h, individual animals, male monkeys) was 3.97 ng/mL and 16.8 ng/mL, the “Plasma Bumetanide Dibenzylamide concentration” value (NG 30 mg/kg, First Formulation (Form 1), 1.00 h, individual animals, female monkeys) was 8.08 ng/mL and 3.01 ng/mL and the “Plasma Bumetanide Dibenzylamide concentration” value (NG 30 mg/kg, First Formulation (Form 1), 1.00 h, individual animals, male monkeys) was 12.1 ng/mL and 29.7 ng/mL.
